Source: US11667638B2, “4-substitued cytisine analogues” (The University of Bristol, priority 2016, dated 2023)
Like-named read-outs stand apart in the source and are kept apart here.

Tests used:
(α4)2(β2)3 nAChRs = (α4)2(β2)3 nAChRs (Homo sapiens (Human), UniProt P17787+P43681); experiment: Maximal gating efficacy on (α4)2(β2)3 nAChRs in Xenopus oocytes, two electrode voltage clamp; assay type: cell-based
Description: (§1) Compounds of the invention were tested for effects on the function of human α4β2, α3β4 and α7 nicotinic acetylcholine receptors (nAChRs) expressed heterologously in Xenopus oocytes. […] Expression in oocytes was obtained as follows: pCI (Promega, UK) plasmid containing human α4, β2, β4 or α7 complementary DNA were injected as previously described (Moroni et al., 2006). To express (α4)3(β2)2 nACh receptors, a mixture of 10α4:1β2 cDNAs was injected into the nucleus of oocytes, whereas for (α4)2(β2)3 receptors the cDNA ratio injected was 1α4:10β2.
(§2) Functional studies: Recordings were performed manually using a Geneclamp amplifier (Molecular Devices, USA) or using an automated HiClamp system. In both cases the oocytes were impaled with two electrodes filled with 3 M KCl and the cells were held at −60 mV throughout the experiments.
(§3) Oocyte isolation and two-electrode voltage-clamp recordings on oocytes were carried out as previously described (Moroni et al., 2006; Carbone et al., 2009). […] A minimum interval of 5 min was allowed between agonist applications to ensure reproducible recordings. Oocytes were exposed to increasing concentrations of the compounds until no further increases in the response amplitude were obtained. This concentration was taken as the concentration that causes maximal responses on the receptors tested. The data summarised in Tables 1-4 were obtained from at least 5 experiments carried out on oocytes obtained from at least three different donors.
Maximal gating efficacy of compounds on (α4)2(β2)3 receptors (high sensitivity receptors): The concentration of the compounds causing maximal activation of the (α4)2(β2)3 nAChRs expressed heterologously in Xenopus oocytes was determined using two electrode voltage clamping.

α4β2 nAChR = α4β2 nAChR (Homo sapiens (Human), UniProt P17787+P43681); assay type: binding; settings: ratio of Ki values
Sequence of α4β2 nAChR (P43681 29-627 limits assumed): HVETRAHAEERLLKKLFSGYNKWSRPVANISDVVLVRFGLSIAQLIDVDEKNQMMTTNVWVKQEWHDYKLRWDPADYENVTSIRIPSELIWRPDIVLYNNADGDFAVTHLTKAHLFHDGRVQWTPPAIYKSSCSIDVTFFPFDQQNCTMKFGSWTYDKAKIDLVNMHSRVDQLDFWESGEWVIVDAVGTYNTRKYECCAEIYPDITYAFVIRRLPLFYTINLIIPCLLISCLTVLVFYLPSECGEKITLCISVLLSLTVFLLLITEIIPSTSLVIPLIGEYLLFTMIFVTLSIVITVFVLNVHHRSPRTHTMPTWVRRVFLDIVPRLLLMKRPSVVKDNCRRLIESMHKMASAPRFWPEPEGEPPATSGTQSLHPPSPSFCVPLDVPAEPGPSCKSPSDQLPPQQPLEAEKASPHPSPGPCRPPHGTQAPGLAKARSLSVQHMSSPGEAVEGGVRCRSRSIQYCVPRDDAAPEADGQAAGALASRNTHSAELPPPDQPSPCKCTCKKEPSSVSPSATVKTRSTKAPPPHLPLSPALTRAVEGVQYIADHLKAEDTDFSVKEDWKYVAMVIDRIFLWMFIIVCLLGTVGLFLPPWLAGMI
Sequence of α4β2 nAChR (P17787 26-502 limits assumed): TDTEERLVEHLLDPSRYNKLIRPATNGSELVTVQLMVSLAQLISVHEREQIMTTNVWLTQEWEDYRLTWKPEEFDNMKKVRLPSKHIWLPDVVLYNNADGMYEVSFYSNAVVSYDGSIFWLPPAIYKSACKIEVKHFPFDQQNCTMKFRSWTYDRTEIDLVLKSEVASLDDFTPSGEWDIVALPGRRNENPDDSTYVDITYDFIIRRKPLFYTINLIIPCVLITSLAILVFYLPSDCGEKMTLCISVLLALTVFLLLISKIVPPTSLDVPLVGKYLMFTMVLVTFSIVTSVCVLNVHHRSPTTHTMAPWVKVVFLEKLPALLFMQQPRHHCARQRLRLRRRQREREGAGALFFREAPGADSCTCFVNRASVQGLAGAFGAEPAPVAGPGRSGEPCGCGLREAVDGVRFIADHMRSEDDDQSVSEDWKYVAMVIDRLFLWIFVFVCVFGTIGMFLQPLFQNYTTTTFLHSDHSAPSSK
Description: HEK 293 cells were grown in Dulbecco's modified Eagle medium supplemented with 10% fetal bovine serum, 1% L-Glutamine, 100 units/ml penicillin G, and 100 μg/streptomycin in a humidified atmosphere containing 10% CO2. The cDNAs encoding α3 and β4 or α4 and β2 (were transfected into the HEK 293 cells at 30% confluency). The cell transfections were carried out in 100 mm Petri dishes using 30 μL of JetPEI™ (Polypus, France) (1 mg/ml, pH 7.2) and 3 μg of each cDNA. After 24 h transfection, the cells were collected, washed with PBS by centrifugation, and used for binding analysis.
[^3H]-epibatidine saturation binding experiments to HEK transfected α3β4 or α4β2 receptors were performed by means of overnight incubation at 4° C. at concentrations ranging from 0.005 to 1 nM in a buffer containing 50 mM Tris-HCl, pH 7, 150 mM NaCl, 5 mM KCl, 1 mM MgCl2, 2.5 mM CaCl2 and 2 mg/ml BSA, in the presence (aspecific binding) or absence (total binding) of 100 nM cold epibatidine. Specific ligand binding was defined as total binding minus the binding in the presence of 100 nM cold epibatidine.
After incubation, the membranes of HEK cells transfected with α4β2* or α3β4 subtypes were washed by filtration on GFC filters with ice-cold PBS. The GFC filters were pre-soaked in polyethylenimine and filtered through an harvester apparatus. [^3H]-epibatidine binding was determined by means of liquid scintillation counting in a beta counter.
The ligand binding data were analyzed by means of nonlinear regression using Prism version 5 (GraphPad Software, Inc., La Jolla, Calif.). The Ki values were calculated from the experimental IC50 values using the Cheng-Prusoff equation for a single population of competitive sites: Ki=IC50/[1+(L/Kd)], where L is the concentration of radioligand used in each experiment and the Kd values were determined by saturation binding experiment. All of the assays were performed in duplicate and repeated at least two-three times.

α3β4 nAChRs = α3β4 nAChRs (Homo sapiens (Human), UniProt P30926+P32297); experiment: Maximal gating efficacy on α3β4 nAChRs in Xenopus oocytes, two electrode voltage clamp; assay type: cell-based; settings: maximal current relative to 1 mM ACh
Sequence of α3β4 nAChRs (P32297 32-505): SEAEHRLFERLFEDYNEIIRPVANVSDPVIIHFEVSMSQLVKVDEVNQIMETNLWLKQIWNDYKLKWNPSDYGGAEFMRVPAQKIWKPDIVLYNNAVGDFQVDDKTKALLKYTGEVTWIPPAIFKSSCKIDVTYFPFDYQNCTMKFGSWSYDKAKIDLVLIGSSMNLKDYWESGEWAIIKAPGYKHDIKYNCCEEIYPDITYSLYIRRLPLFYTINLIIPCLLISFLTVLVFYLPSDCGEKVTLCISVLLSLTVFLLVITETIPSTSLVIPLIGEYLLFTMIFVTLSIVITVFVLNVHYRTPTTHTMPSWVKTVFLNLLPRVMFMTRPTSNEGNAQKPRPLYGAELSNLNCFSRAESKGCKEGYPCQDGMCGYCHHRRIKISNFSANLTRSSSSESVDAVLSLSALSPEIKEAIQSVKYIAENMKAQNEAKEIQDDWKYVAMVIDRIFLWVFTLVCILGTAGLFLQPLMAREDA
Sequence of α3β4 nAChRs (P30926 22-498): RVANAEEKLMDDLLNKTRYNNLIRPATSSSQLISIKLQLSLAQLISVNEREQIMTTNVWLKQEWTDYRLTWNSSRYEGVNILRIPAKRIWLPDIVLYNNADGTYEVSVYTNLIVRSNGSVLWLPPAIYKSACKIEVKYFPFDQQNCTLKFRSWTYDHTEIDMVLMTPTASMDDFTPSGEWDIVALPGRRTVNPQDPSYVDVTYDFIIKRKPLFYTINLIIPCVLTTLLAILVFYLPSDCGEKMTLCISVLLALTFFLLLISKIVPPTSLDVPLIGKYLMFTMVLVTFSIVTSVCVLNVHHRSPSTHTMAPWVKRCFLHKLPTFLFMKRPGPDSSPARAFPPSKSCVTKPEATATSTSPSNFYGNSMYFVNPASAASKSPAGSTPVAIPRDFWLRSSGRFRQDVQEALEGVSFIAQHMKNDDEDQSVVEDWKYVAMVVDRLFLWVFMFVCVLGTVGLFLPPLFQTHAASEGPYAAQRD
Description: as §1, §2, §3
Maximal gating efficacy of the compounds on α3β4 nAChRs: The concentration of the compounds causing maximal activation of α3β4 nAChRs expressed heterologously in Xenopus oocytes was determined using two electrode voltage clamping.

(α4)3(β2)2 nAChRs = (α4)3(β2)2 nAChRs (Homo sapiens (Human), UniProt P17787+P43681); experiment: Maximal gating efficacy on (α4)3(β2)2 nAChRs in Xenopus oocytes, two electrode voltage clamp; assay type: cell-based
Sequence of (α4)3(β2)2 nAChRs (P43681 29-627): as the sequence (P43681 29-627 limits assumed) above
Sequence of (α4)3(β2)2 nAChRs (P17787 26-502): as the sequence (P17787 26-502 limits assumed) above
Description: as §1, §2, §3
Maximal gating efficacy of the compounds: The concentration of the compounds of the invention causing maximal activation of the (α4)3(β2)2 nAChRs expressed heterologously in Xenopus oocytes was determined using two electrode voltage clamping.

α7 nAChRs = α7 nAChRs (Homo sapiens (Human), UniProt P36544); assay type: cell-based; settings: compounds at 100 μM, relative to 1 mM ACh
Sequence of α7 nAChRs (P36544 23-502): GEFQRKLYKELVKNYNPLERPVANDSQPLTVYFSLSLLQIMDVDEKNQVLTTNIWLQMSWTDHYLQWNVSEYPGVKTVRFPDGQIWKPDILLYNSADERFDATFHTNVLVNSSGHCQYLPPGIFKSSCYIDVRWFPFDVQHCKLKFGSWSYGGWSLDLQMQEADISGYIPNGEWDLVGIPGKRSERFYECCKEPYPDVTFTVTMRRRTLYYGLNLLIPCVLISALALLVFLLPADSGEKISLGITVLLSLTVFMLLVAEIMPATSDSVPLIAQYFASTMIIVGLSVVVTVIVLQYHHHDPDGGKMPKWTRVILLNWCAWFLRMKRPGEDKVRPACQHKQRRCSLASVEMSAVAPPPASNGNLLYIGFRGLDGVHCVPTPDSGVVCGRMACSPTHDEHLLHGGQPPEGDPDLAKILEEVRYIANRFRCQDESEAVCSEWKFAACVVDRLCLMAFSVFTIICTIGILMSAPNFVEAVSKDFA
Description: as §1, §2, §3

[1] = (α4)2(β2)3, high sensitivity receptors, maximal current relative to 1 mM ACh
[2] = (α4)3(β2)2, low sensitivity stoichiometry, maximal current relative to 1 mM ACh

Sequence of (α4)2(β2)3 nAChRs (P43681 29-627): as the sequence (P43681 29-627 limits assumed) above
Sequence of (α4)2(β2)3 nAChRs (P17787 26-502): as the sequence (P17787 26-502 limits assumed) above

Structure (SMILES)	Relative efficacy (ACh) ((α4)2(β2)3 nAChRs; [1])	Ratio α3β4/α4β2 (α4β2 nAChR)	Relative efficacy (ACh) (α3β4 nAChRs)	Relative efficacy (ACh) ((α4)3(β2)2 nAChRs; [2])	Relative efficacy (ACh) (α7 nAChRs)	Relative efficacy (ACh) ((α4)2(β2)3 nAChRs)	Relative efficacy (ACh) ((α4)3(β2)2 nAChRs)
O=c1cc(O)cc2n1CC1CNC[C@@H]2C1 (single isomer, unassigned; (+)) [Compound 67, (+)4-Hydroxycytisine]	0.005 ± 0.0001	397.8	0.047 ± 0.036	0.07 ± 0.009	No response at 100 μM		
Cc1ccc(-c2cc3n(c(=O)c2)CC2CNC[C@@H]3C2)cc1 (single isomer, unassigned; (+)) [Compound 73, (+)4-p-Tolylcytisine]		161.7	0.076 ± 0.093		0.0027 ± 0.0021	0.030 ± 0.013	0.017 ± 0.019
CC(=O)Nc1cc2n(c(=O)c1)CC1CNC[C@@H]2C1.Cl (single isomer, unassigned; (+)) [Compound 94, (+)4-(N-acetylamino)cytisine]	0.001 ± 0.0006	751.0	0.055 ± 0.047	0.153 ± 0.006	0.0001 ± 0.00001		
O=c1cc(Cl)cc2n1CC1CNC[C@@H]2C1 (single isomer, unassigned; (-)) [Compound 60, (−)4-Chlorocytisine]	0.01 ± 0.007	328.6	0.133 ± 0.017	0.110 ± 0.08	0.38 ± 0.09		
O=c1cc(Br)cc2n1CC1CNC[C@@H]2C1 (single isomer, unassigned; (-)) [Compound 62, (−)4-Bromocytisine]	0.009 ± 0.0001	303.4	0.184 ± 0.046	0.057 ± 0.007	0.28 ± 0.01		
COc1cc2n(c(=O)c1)CC1CNC[C@@H]2C1 (single isomer, unassigned; (-)) [Compound 69, (−)4-Methoxycytisine]	0.009 ± 0.0008	206.1	0.044 ± 0.059	0.071 ± 0.009	0.061 ± 0.09		
Cl.O=c1cc(-c2c(F)c(F)c(F)c(F)c2F)cc2n1CC1CNC[C@@H]2C1 (single isomer, unassigned; (-)) [Compound 75, (−)4-(Perfluorophenyl)cytisine]	0.050 ± 0.071	8.1	0.120 ± 0.039	0.011 ± 0.010	0.0007 ± 0.0006		
O=c1cc(-c2ccccn2)cc2n1CC1CNC[C@@H]2C1 (single isomer, unassigned; (-)) [Compound 101, (−)4-(2-Pyridinyl)cytisine]	0.0001 ± 0.00008	1575.0	0.066 ± 0.056	0.009 ± 0.008	0.16 ± 0.03		
O=c1cc(-c2ccncc2)cc2n1CC1CNC[C@@H]2C1 (single isomer, unassigned; (-)) [Compound 103, (−)4-(4-Pyridinyl)cytisine]	0.0067 ± 0.0006	859.6	0.016 ± 0.010	0.023 ± 0.006	0.07 ± 0.009		
Cc1cc2n(c(=O)c1)CC1CNC[C@@H]2C1.Cl (single isomer, unassigned; (-)) [Compound 110, (−)4-Methylcytisine]	0.041 ± 0.004	864.3	0.0708 ± 0.059	0.014 ± 0.007	0.0017 ± 0.0024		
CCc1cc2n(c(=O)c1)CC1CNC[C@@H]2C1.Cl (single isomer, unassigned; (-)) [Compound 118, (−)4-Ethylcytisine]	0.062 ± 0.025	1901.3	0.086 ± 0.106	0.036 ± 0.055	0.0057 ± 0.0028		
Cl.O=c1cc(CO)cc2n1CC1CNC[C@@H]2C1 (single isomer, unassigned; (-)) [Compound 122, (−)4-(Hydroxymethyl)cytisine]	0.025 ± 0.000	73.0	0.015 ± 0.020	0.058 ± 0.057	0.0067 ± 0.0015		
C#Cc1cc2n(c(=O)c1)CC1CNC[C@@H]2C1.Cl (single isomer, unassigned; (-)) [Compound 127, (−)4-(acetylenyl)cytisine]	0.009 ± 0.0009	710.5	0.165 ± 0.064	0.071 ± 0.009	0.17 ± 0.03		
N#Cc1cc2n(c(=O)c1)CC1CNC[C@@H]2C1 (single isomer, unassigned; (-)) [Compound 140, (−)4-Cyanocytisine]	0.026 ± 0.036	199.5	0.172 ± 0.064	0.050 ± 0.027			
CC(=O)NCc1cc2n(c(=O)c1)CC1CNC[C@@H]2C1.Cl (single isomer, unassigned; (-)) [Compound 148]	0.015 ± 0.021	204.8	0.034 ± 0.038	0.041 ± 0.057			
Cl.O=c1c(C(F)(F)F)c(Br)cc2n1CC1CNC[C@@H]2C1 (single isomer, unassigned; (-)) [Compound 162, (−)3-(Trifluoromethyl)-4-bromocytisine]	0.042 ± 0.060	136.4	0.250 ± 0.077	0.072 ± 0.026			
CN(Cc1cc2n(c(=O)c1)CC1CNC[C@@H]2C1)Cc1cc2n(c(=O)c1)CC1CNC[C@@H]2C1 (stereo in doubt) [Compound 156, Methylamino bis(cytisine) derivative]	No response	207.3	0.012 ± 0.007	0.052 ± 0.007			
c1cnc2cc3c(cc2n1)[C@@H]1CNC[C@H]3C1 [Varenicline, reference compound]	0.14 ± 0.03		0.51 ± 0.09	0.40 ± 0.09	0.96 ± 0.03		
